# Like-named read-outs stand apart in the source and are kept apart here.
# Legend:
# hPAD4 = hPAD4 (Homo sapiens, UniProt Q9UM07); assay: hPAD4 RFMS (RapidFire mass spectrometry) PAD4 inhibition assay; type: biochemical; conditions: hPAD4 enzyme, RFMS readout;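 as to hPAD4 RFMS pIC50: grade E means pIC50 at most 4 and F means pIC50 4.0 to 5.0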
# Experimental: (§1) Compounds of the present invention were assayed as inhibitors of PAD4 using the assay protocol described below.
# (§2) Compound stock solutions were stored at RT. […] Final assay conditions were as follows:
# (§3) Total incubation time: 65 mins at 37° C.
# (§4) Stop solution: 40 μl 5% TCA in ACN
# (§5) The compound numbers correspond to the compound numbers in Table 1. […] The term pIC50=−log(IC50). […] “NA” stands for “not assayed.”
# mPAD4 = mPAD4 (Mus musculus, UniProt Q9Z183); assay: mPAD4 RFMS PAD4 inhibition assay; type: biochemical; conditions: mPAD4, RFMS readout;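 as to mPAD4 RFMS pIC50: grade E means pIC50 at most 4 and F means pIC50 4.0 to 5.0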
# Experimental: as §1, §2, §3, §4, §5
# [1] = pIC50=−log(IC50), read-out: hPAD4 RFMS pIC50 (converted)
# [2] = pIC50=−log(IC50), read-out: mPAD4 RFMS pIC50 (converted)
# Sequence of hPAD4 (Q9UM07 whole entry): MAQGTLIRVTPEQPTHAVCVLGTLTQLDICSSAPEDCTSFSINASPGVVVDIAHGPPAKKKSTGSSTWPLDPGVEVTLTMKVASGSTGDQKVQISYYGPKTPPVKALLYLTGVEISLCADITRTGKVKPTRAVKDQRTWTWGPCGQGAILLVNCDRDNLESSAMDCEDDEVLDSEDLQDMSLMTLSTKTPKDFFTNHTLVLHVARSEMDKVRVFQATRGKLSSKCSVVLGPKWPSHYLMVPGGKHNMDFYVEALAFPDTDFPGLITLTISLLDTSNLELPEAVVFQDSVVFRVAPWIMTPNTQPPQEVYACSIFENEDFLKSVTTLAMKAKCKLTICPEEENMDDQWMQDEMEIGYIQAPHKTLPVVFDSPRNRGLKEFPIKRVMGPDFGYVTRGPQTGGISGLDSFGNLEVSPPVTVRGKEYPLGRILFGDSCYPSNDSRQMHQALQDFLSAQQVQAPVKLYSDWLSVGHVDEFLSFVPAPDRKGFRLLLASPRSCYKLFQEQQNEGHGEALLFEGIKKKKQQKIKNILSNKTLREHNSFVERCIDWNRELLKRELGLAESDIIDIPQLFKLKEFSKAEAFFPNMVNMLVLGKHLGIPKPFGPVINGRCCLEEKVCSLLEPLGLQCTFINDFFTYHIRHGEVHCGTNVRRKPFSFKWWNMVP
# Sequence of mPAD4 (Q9Z183 whole entry): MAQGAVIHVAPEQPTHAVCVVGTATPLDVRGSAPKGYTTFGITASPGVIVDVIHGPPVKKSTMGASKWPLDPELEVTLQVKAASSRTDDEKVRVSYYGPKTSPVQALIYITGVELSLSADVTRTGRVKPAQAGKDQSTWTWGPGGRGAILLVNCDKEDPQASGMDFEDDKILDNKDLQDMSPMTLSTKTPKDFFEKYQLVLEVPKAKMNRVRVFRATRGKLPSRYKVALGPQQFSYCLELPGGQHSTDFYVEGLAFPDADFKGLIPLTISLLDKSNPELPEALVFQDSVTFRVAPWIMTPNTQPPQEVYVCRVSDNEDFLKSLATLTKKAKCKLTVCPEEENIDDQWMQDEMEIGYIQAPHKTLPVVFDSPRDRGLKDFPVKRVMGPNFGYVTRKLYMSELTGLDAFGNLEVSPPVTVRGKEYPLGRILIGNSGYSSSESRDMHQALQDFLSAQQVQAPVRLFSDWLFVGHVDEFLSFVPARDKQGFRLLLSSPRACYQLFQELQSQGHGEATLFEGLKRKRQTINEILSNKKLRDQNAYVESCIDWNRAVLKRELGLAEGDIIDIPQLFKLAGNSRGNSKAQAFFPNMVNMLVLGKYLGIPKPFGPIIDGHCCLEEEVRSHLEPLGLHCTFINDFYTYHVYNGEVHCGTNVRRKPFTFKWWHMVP
SMILES,IC50 (hPAD4; [1]) [µM],IC50 (hPAD4; read-out: hPAD4 RFMS IC50) [µM],IC50 (mPAD4; [2]) [µM],IC50 (mPAD4; read-out: mPAD4 RFMS IC50) [µM],hPAD4 RFMS pIC50 (hPAD4; pIC50=−log(IC50))
"COC1CCN(C(=O)c2ccc3c(c2)nc(-c2cc4cccnc4n2CC2CC2)n3C)CC1N (racemic) [Compound I-62, 1-{2-[1-(cyclopropylmethyl)-1H-pyrrolo[2,3-b]pyridin-2-yl]-1-methyl-1H-1,3-benzodiazole-5-carbonyl}-4-methoxypiperidin-3-amine]",1 to 10,1 to 5,1 to 10,5 to 10,
COc1cc(C(=O)N2CC(O)(C3CCCCN3)C2)cc2nc(-c3cc4cccnc4n3CC3CC3)n(C)c12 (racemic) [Compound I-74],10 to 100,> 10,10 to 100,> 10,
"COc1ccc2cc(-c3nc4cc(C(=O)N5C[C@H](N)CC[C@@H]5C)ccc4n3C)n(CC3CC3)c2n1 [Compound I-352, ((2S,5R)-5-amino-2-methylpiperidin-1-yl)(2-(1-(cyclopropylmethyl)-6-methoxy-1H-pyrrolo[2,3-b]pyridin-2-yl)-1-methyl-1H-benzo[d]imidazol-5-yl)methanone]",< 1,< 1,,,
"COc1ccc2cc(-c3nc4cc(C(=O)N5C[C@H]6CC[C@@H]5[C@@H]6N)ccc4n3C)n(CC3CC3)c2n1 [Compound I-353, ((1R,4R,7R)-7-amino-2-azabicyclo[2.2.1]heptan-2-yl)(2-(1-(cyclopropylmethyl)-6-methoxy-1H-pyrrolo[2,3-b]pyridin-2-yl)-1-methyl-1H-benzo[d]imidazol-5-yl)methanone]",< 1,< 1,,,
"COc1ccc2cc(-c3nc4cc(C(=O)N5C[C@@H](N)C[C@H](F)C5)ccc4n3C)n(CC3CC3)c2n1 [Compound I-354, ((3S,5S)-3-amino-5-fluoropiperidin-1-yl)(2-(1-(cyclopropylmethyl)-6-methoxy-1H-pyrrolo[2,3-b]pyridin-2-yl)-1-methyl-1H-benzo[d]imidazol-5-yl)methanone]",< 1,< 1,,,
"COc1ccc2cc(-c3nc4cc(C(=O)N5C[C@H](N)CC[C@@H]5C)cc(OC)c4n3C)n(CC3CC3)c2n1 [Compound I-355, ((2S,5R)-5-amino-2-methylpiperidin-1-yl)(2-(1-(cyclopropylmethyl)-6-methoxy-1H-pyrrolo[2,3-b]pyridin-2-yl)-7-methoxy-1-methyl-1H-benzo[d]imidazol-5-yl)methanone]",< 1,< 1,,,
"COc1ccc2cc(-c3nc4cc(C(=O)N5C[C@@H](N)C[C@H](F)C5)cc(OC)c4n3C)n(CC3CC3)c2n1 [Compound I-356, ((3S,5S)-3-amino-5-fluoropiperidin-1-yl)(2-(1-(cyclopropylmethyl)-6-methoxy-1H-pyrrolo[2,3-b]pyridin-2-yl)-7-methoxy-1-methyl-1H-benzo[d]imidazol-5-yl)methanone]",< 1,< 1,,,
COc1cc(C(=O)N2C[C@H]3CCC2[C@H]3N)cc2nc(-c3cc4cc(/C=C/C5CC5)ccc4n3CC3CC3)n(C)c12 [Compound I-357],< 1,< 1,,,
COc1cc(C(=O)N2C[C@H]3CCC2[C@H]3N)cc2nc(-c3cc4cc(/C=C/CC(C)C)ccc4n3CC3CC3)n(C)c12 [Compound I-358],< 1,< 1,,,
COc1cc(C(=O)N2C[C@H]3CCC2[C@H]3N)cc2nc(-c3cc4cc(/C=C/c5ccccc5)ccc4n3CC3CC3)n(C)c12 [Compound I-359],< 1,< 1,,,
COc1cc(C(=O)N2C[C@H]3CCC2[C@H]3N)cc2nc(-c3cc4cc(/C=C/CCc5ccccc5)ccc4n3CC3CC3)n(C)c12 [Compound I-360],< 1,< 1,,,
"COc1cc(C(=O)N2C[C@H]3CC[C@H]2[C@H]3N)cc2nc(-c3cc4cc(/C=C/c5ccc(C(F)(F)F)cc5)ccc4n3CC3CC3)n(C)c12 [Compound I-361, ((1S,4R)-7-amino-2-azabicyclo[2.2.1]heptan-2-yl)(2-(1-(cyclopropylmethyl)-5-((E)-4-(trifluoromethyl)styryl)-1H-indol-2-yl)-7-methoxy-1-methyl-1H-benzo[d]imidazol-5-yl)methanone]",< 1,< 1,,,
COc1cc(C(=O)N2C[C@H]3CC[C@@H]2[C@@H]3N)cc2nc(-c3cc4cc(C5=Cc6ccccc6C5)ccc4n3CC3CC3)n(C)c12 [Compound I-362],< 1,< 1,,,
COc1cc(C(=O)N2C[C@H]3CCC2[C@H]3N)cc2nc(-c3cc4ccc(/C=C/C5CC5)cc4n3CC3CC3)n(C)c12 [Compound I-363],< 1,< 1,,,

# The remaining lines, values ahead:
IC50 (hPAD4; [1]) [µM],IC50 (hPAD4; read-out: hPAD4 RFMS IC50) [µM],IC50 (mPAD4; [2]) [µM],IC50 (mPAD4; read-out: mPAD4 RFMS IC50) [µM],hPAD4 RFMS pIC50 (hPAD4; pIC50=−log(IC50)),SMILES
< 1,< 1,,,,COc1cc(C(=O)N2C[C@H]3CCC2[C@H]3N)cc2nc(-c3cc4ccc(/C=C/CC(C)C)cc4n3CC3CC3)n(C)c12 [Compound I-364]
< 1,< 1,,,,COc1cc(C(=O)N2C[C@H]3CCC2[C@H]3N)cc2nc(-c3cc4ccc(/C=C/c5ccccc5)cc4n3CC3CC3)n(C)c12 [Compound I-365]
< 1,< 1,,,,COc1cc(C(=O)N2C[C@H]3CCC2[C@H]3N)cc2nc(-c3cc4ccc(/C=C/Cc5ccccc5)cc4n3CC3CC3)n(C)c12 [Compound I-366]
< 1,< 1,,,,COc1cc(C(=O)N2C[C@H]3CCC2[C@H]3N)cc2nc(-c3cc4ccc(/C=C/c5ccc(C(F)(F)F)cc5)cc4n3CC3CC3)n(C)c12 [Compound I-367]
< 1,< 1,,,,COc1cc(C(=O)N2C[C@H]3CCC2[C@H]3N)cc2nc(-c3cc4ccc(C5=Cc6ccccc6C5)cc4n3CC3CC3)n(C)c12 [Compound I-368]
< 1,< 1,,,,COc1cc(C(=O)N2C[C@H]3CCC2[C@H]3N)cc2nc(-c3cc4ccc(/C=C/CCc5ccccc5)cc4n3CC3CC3)n(C)c12 [Compound I-369]
< 1,< 1,,,,COc1cc(C(=O)N2C[C@H]3CC[C@@H]2[C@@H]3N)cc2nc(-c3cc4ccc(C#N)cc4n3CC3CC3)n(C)c12 [Compound I-371]
,1 to 5,,,G/H,COc1cc(C(=O)N2C[C@H]3CC[C@@H]2[C@@H]3N)cc2nc(-c3cc4cc(NCC5CC5)ccc4n3CC3CC3)n(C)c12 [Compound I-372]
1 to 10,1 to 5,,,,COc1cc(C(=O)N2C[C@H]3CCC2[C@H]3N)cc2nc(-c3cc4cc(N(C)CCC5CC5)ccc4n3CC3CC3)n(C)c12 [Compound I-373]
< 1,< 1,,,,"COc1cc(C(=O)N2C[C@H]3CC[C@H]2[C@H]3N)cc2nc(-c3cc4cc(NCCC5CC5)ccc4n3CC3CC3)n(C)c12 [Compound I-374, ((1S,4R)-7-amino-2-azabicyclo[2.2.1]heptan-2-yl)(2-(5-((2-cyclopropylethyl)amino)-1-(cyclopropylmethyl)-1H-indol-2-yl)-7-methoxy-1-methyl-1H-benzo[d]imidazol-5-yl)methanone]"
< 1,< 1,,,,COc1cc(C(=O)N2C[C@H]3CC[C@@H]2[C@@H]3N)cc2nc(-c3cc4ccc(NCCC5CC5)cc4n3CC3CC3)n(C)c12 [Compound I-375]
< 1,< 1,,,,COc1cc(C(=O)N2C[C@H]3CC[C@@H]2[C@@H]3N)cc2nc(-c3cc4ccc(N(C)CCC5CC5)cc4n3CC3CC3)n(C)c12 [Compound I-376]
